Source: patent US8592426B2, “Aryl-benzocycloalkyl amide derivatives” (Hoffmann—La Roche Inc., priority 2011, dated 2013)

Columns and labels:
Bradykinin-1 receptor [1] = target: T1, Bradykinin-1 receptor (Homo sapiens (Human), UniProt P46663); assay: Receptor binding assay (B1R Binding Assay), [3H]-Kallidin (Des Arg10, Leu9) displacement; details: membranes from CHO-K1 cells overexpressing Bradykinin-1 receptor; 6 nM radioligand
Method: Binding assays were done with membranes from CHO-K1 cells overexpressing Bradykinin-1 receptor.
To determine non-specific binding 10 μM Lys-(Des-Arg^9)-Bradykinin (Bachem) was added. Membranes were harvested through GF/B (glass fiber filter; PerkinElmer) plates, equilibrated with 0.5% polyethylenimine, air dried at 50° C. for 2 h. Radioactivity was determined by counting in a topcounter (NXT Packard).

Bradykinin-1 receptor [2] = target: T1, Bradykinin-1 receptor; assay: Calcium mobilization assay (FLIPR, Fluo-4) in GeneBLAzer Bradykinin (B1)-NFAT-bla CHO-K1 cells; format: cell-based; details: antagonist activity; CHO-K1 cells stably overexpressing the human bradykinin 1 receptor; read-out: Ca mobilization Assay IC50
Method: Calcium Mobilization Assay
GeneBLAzer® Bradykinin (B1)-NFAT-bla CHO-K1 cells (from Invitrogen) stably overexpressing the human bradykinin 1 receptor were cultured in DMEM (high glucose) supplemented with 10% dialysed FBS, 1% NEAA (non essential amino acids) 1% penicillin/streptomycin, 1% G418 and 0.1 mg/ml zeocin.
For the assay cells were grown overnight in 384-well black clear flat bottom polystyrene plates (Costar) at 37° C. at 5% CO2. After washing with DMEM, 20 mM Hepes, 2.5 mM probenecid, 0.1% BSA (DMEM assay buffer) cells were loaded with 4 μM Fluo-4 in the same DMEM assay buffer for 2 hours at 30° C. Excess dye was removed and cells were washed with DMEM assay buffer. 384-well compound plates were prepared with DMEM assay buffer/0.5% DMSO with or without various concentrations of test compounds. Usually compounds were tested for agonist and antagonist activity.
Test compounds were added to the assay plate and agonist activity was monitored as fluorescence for 80 seconds with a FLIPR (488 nm excitation; 510-570 nm emission; Molecular Devices). After 20-30 min. of incubation at 30° C., 20 nM […] (R&D; Roche) was added and fluorescence was monitored again for 80 seconds. Increases in intracellular calcium are reported as maximum fluorescence after agonist exposure minus basal fluorescence before exposure.

T1 sequence (P46663 whole entry): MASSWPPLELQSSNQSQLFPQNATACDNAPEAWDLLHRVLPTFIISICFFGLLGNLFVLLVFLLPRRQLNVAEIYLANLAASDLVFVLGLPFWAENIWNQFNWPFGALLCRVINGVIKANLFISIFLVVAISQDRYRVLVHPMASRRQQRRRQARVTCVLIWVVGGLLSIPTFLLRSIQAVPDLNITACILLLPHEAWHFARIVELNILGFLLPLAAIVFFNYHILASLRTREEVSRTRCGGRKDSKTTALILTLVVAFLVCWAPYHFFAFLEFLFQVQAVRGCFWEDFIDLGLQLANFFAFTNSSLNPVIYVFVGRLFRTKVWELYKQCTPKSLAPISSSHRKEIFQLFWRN

Row | SMILES | Ki (Bradykinin-1 receptor [1]) [nM] | IC50 (Bradykinin-1 receptor [2]) [nM]
1 | COC(=O)c1c(Cl)cccc1-c1ccc2c(c1)CCC2NC(=O)C1(NC(=O)C(F)(F)F)CC1 (racemic) [Example 3, (rac)-2-Chloro-6-(1-{[1-(2,2,2-trifluoro-acetylamino)-cyclopropanecarbonyl]-amino}-indan-5-yl)-benzoic acid methyl ester] | 123 | 47.4
2 | Cc1nc(-c2c(F)cc(Cl)cc2-c2ccc3c(c2)CC[C@@H]3NC(=O)C2(NC(=O)C(F)(F)F)CC2)no1 [Example 5, 1-(2,2,2-Trifluoro-acetylamino)-cyclopropanecarboxylic acid{(S)-5-[5-chloro-3-fluoro-2-(5-methyl-[1,2,4]oxadiazol-3-yl)-phenyl]-indan-1-yl}-amide] | 6.2 | 0.6
3 | Cc1nc(-c2c(F)cc(Cl)cc2-c2cc(F)c3c(c2)CCC3NC(=O)C2(NC(=O)OC(C)(C)C)CC2)no1 (racemic) [Example 31, (1-{(rac)-5-[5-Chloro-3-fluoro-2-(5-methyl-[1,2,4]oxadiazol-3-yl)-phenyl]-7-fluoro-indan-1-ylcarbamoyl}-cyclopropyl)-carbamic acid tert-butyl ester] | 475 | 135
4 | Cn1nnc(-c2c(F)cc(Cl)cc2-c2cnc3c(c2)CCC3NC(=O)C2(NC(=O)C(F)(F)F)CC2)n1 (racemic) [Example 13, 1-(2,2,2-Trifluoro-acetylamino)-cyclopropanecarboxylic acid{(rac)-3-[5-chloro-3-fluoro-2-(2-methyl-2H-tetrazol-5-yl)-phenyl]-6,7-dihydro-5H-[1]pyrindin-7-yl}-amide] | 9.5 | 0.5
5 | Cn1nnc(-c2c(F)cc(Cl)cc2-c2cnc3c(c2)CCC3NC(=O)C2(NC(=O)c3ccno3)CC2)n1 (racemic) [Example 57, Isoxazole-5-carboxylic acid(1-{(rac)-3-[5-chloro-3-fluoro-2-(2-methyl-2H-tetrazol-5-yl)-phenyl]-6,7-dihydro-5H-[1]pyrindin-7-ylcarbamoyl}-cyclopropyl)-amide] | 5.8 | 0.4
6 | Cc1nc(-c2c(F)cc(Cl)cc2-c2ccc3c(c2)CCCC3NC(=O)C2(NC(=O)C(F)(F)F)CC2)no1 (racemic) [Example 11, 1-(2,2,2-Trifluoro-acetylamino)-cyclopropanecarboxylic acid{(rac)-6-[5-chloro-3-fluoro-2-(5-methyl-[1,2,4]oxadiazol-3-yl)-phenyl]-1,2,3,4-tetrahydro-naphthalen-1-yl}-amide] | 41.6 | 4
7 | Cc1nnc(C(=O)NC2(C(=O)NC3CSc4cc(-c5cc(Cl)cc(F)c5-c5nnn(C)n5)ccc43)CC2)o1 (racemic) [Example 62, 5-Methyl-[1,3,4]oxadiazole-2-carboxylic acid(1-{(rac)-6-[5-chloro-3-fluoro-2-(2-methyl-2H-tetrazol-5-yl)-phenyl]-2,3-dihydro-benzo[b]thiophen-3-ylcarbamoyl}-cyclopropyl)-amide] | 12.2 | 4.8
8 | Cc1nc(-c2c(F)cc(Cl)cc2-c2ccc3c(c2)CC[C@@H]3NC(=O)C2(NC(=O)c3ccno3)CC2)no1 [Example 28, Isoxazole-5-carboxylic acid(1-{(S)-5-[5-chloro-3-fluoro-2-(5-methyl-[1,2,4]oxadiazol-3-yl)-phenyl]-indan-1-ylcarbamoyl}-cyclopropyl)-amide] | 4.1 | 0.3
9 | Cc1nc(-c2c(F)cc(Cl)cc2-c2ccc3c(c2)CC[C@@H]3NC(=O)C2(N)CC2)no1 [Example 24, 1-Amino-cyclopropanecarboxylic acid{(S)-5-[5-chloro-3-fluoro-2-(5-methyl-[1,2,4]oxadiazol-3-yl)-phenyl]-indan-1-yl}-amide] | 36.4 | 5
10 | Cn1nnc(-c2c(F)cc(Cl)cc2-c2ccc3c(c2)SCC3NC(=O)C2(N)CC2)n1 (racemic) [Example 61, 1-Amino-cyclopropanecarboxylic acid{(rac)-6-[5-chloro-3-fluoro-2-(2-methyl-2H-tetrazol-5-yl)-phenyl]-2,3-dihydro-benzo[b]thiophen-3-yl}-amide] | 264 | 17.4
11 | Cc1nc(-c2c(F)cc(Cl)cc2-c2cc(F)c3c(c2)CCC3NC(=O)C2(NC(=O)c3ccnnc3)CC2)no1 (racemic) [Example 34, Pyridazine-4-carboxylic acid(1-{(rac)-5-[5-chloro-3-fluoro-2-(5-methyl-[1,2,4]oxadiazol-3-yl)-phenyl]-7-fluoro-indan-1-ylcarbamoyl}-cyclopropyl)-amide] | 15.1 | 0.6
12 | Cc1nc(-c2c(F)cc(Cl)cc2-c2ccc3c(c2)OCCC3NC(=O)C2(NC(=O)C(F)(F)F)CC2)no1 (racemic) [Example 14, 1-(2,2,2-Trifluoro-acetylamino)-cyclopropanecarboxylic acid{(rac)-7-[5-chloro-3-fluoro-2-(5-methyl-[1,2,4]oxadiazol-3-yl)-phenyl]-chroman-4-yl}-amide] | 212 | 24.8
13 | Cc1nc(-c2c(F)cc(Cl)cc2-c2ccc3c(c2)OCC3NC(=O)C2(NC(=O)c3ccnnc3)CC2)no1 (racemic) [Example 46, Pyridazine-4-carboxylic acid(1-{(rac)-6-[5-chloro-3-fluoro-2-(5-methyl-[1,2,4]oxadiazol-3-yl)-phenyl]-2,3-dihydro-benzofuran-3-ylcarbamoyl}-cyclopropyl)-amide] | 19.1 | 4.7
14 | COc1cc(C(=O)NC2(C(=O)NC3CCc4cc(-c5cc(Cl)cc(F)c5-c5noc(C)n5)cc(F)c43)CC2)on1 (racemic) [Example 35, 3-Methoxy-isoxazole-5-carboxylic acid(1-{(rac)-5-[5-chloro-3-fluoro-2-(5-methyl-[1,2,4]oxadiazol-3-yl)-phenyl]-7-fluoro-indan-1-ylcarbamoyl}-cyclopropyl)-amide] | 17.1 | 0.5
15 | Cc1nc(-c2c(F)cc(Cl)cc2-c2ccc3c(c2)CC[C@@H]3NC(=O)C2(NC(=O)OC(C)(C)C)CC2)no1 [Example 23, (1-{(S)-5-[5-Chloro-3-fluoro-2-(5-methyl-[1,2,4]oxadiazol-3-yl)-phenyl]-indan-1-ylcarbamoyl}-cyclopropyl)-carbamic acid tert-butyl ester] | 669 | 332
16 | COc1ncc(C(=O)NC2(C(=O)NC3CCc4cc(-c5cc(Cl)cc(F)c5-c5noc(C)n5)cc(F)c43)CC2)cn1 (racemic) [Example 33, 2-Methoxy-pyrimidine-5-carboxylic acid(1-{(rac)-5-[5-chloro-3-fluoro-2-(5-methyl-[1,2,4]oxadiazol-3-yl)-phenyl]-7-fluoro-indan-1-ylcarbamoyl}-cyclopropyl)-amide] | 18.9 | 0.5
17 | Cc1nc(-c2c(F)cc(Cl)cc2-c2cnc3c(c2)CCC3NC(=O)C2(NC(=O)c3ccnnc3)CC2)no1 (single isomer, unassigned) [Example 41, Pyridazine-4-carboxylic acid(1-{(S or R) 3-[5-chloro-3-fluoro-2-(5-methyl-[1,2,4]oxadiazol-3-yl)-phenyl]-6,7-dihydro-5H-[1]pyrindin-7-ylcarbamoyl}-cyclopropyl)-amide] | 4 | 0.2
